Data as given in patent US20060252807A1, “Novel ortho-terphenyl inhibitors of p38 kinase and methods of treating inflammatory disorders” (Kalypsys, Inc., priority 2005, published 2006).

The molecules below were run against T1, active p38 alpha enzyme (Upstate Biotechnology) (Homo sapiens, UniProt Q16539) (assay: p38α biochemical assay (ATP turnover, luminescent detection, Cambrex PKlight)). Conditions: p38α biochemical assay, Table 1 Biological Activity.
T1 construct: purchased Upstate Biotechnology
T1 sequence (Q16539 whole entry): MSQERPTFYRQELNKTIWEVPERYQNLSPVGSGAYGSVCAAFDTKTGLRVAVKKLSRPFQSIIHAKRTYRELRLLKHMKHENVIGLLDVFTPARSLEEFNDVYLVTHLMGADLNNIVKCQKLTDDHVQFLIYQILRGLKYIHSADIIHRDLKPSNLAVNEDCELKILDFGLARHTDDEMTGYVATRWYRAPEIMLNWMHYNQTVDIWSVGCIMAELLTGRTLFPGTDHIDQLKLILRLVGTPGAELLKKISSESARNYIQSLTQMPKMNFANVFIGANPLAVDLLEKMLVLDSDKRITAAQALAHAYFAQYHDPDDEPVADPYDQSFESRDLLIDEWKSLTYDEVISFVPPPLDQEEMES
Summary of the method: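 Luminescent ATP-depletion readout measures total ATP turnover by p38α phosphorylating whole MapkapK2 protein. ATP 1.4 uM final; 30C, 2 h. Compounds delivered from DMSO.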

Structure (SMILES)	IC50 [nM]
CC(C)NC(=O)c1csc(-c2oc(CNC(=O)c3cc([N+](=O)[O-])ccc3Cl)nc2-c2ccc(F)cc2)n1 [Example 271]	≤ 1000
CC(C)NC(=O)c1csc(-c2oc(CNC(=O)CCc3ccccc3O)nc2-c2ccc(F)cc2)n1 [Example 181]	≤ 1000
CC(C)NC(=O)c1csc(-c2oc(CNC(=O)CCc3cccc(Br)c3)nc2-c2ccc(F)cc2)n1 [Example 310]	> 1000
CC(C)NC(=O)c1csc(-c2oc(CN3CCN(C(=O)c4ccc(Br)cc4)CC3)nc2-c2ccc(F)cc2)n1 [Example 506]	> 1000
CC(C)NC(=O)c1csc(-c2c(-c3ccc(F)cc3)noc2CNC(=O)/C=C/c2ccccc2)n1 [Example 606]	> 1000
CC(C)NC(=O)c1csc(-c2oc(CNC(=O)C(C)c3cccc(C(=O)c4ccccc4)c3)nc2-c2ccc(F)cc2)n1 (stereo not drawn) [Example 330]	> 1000
CC(C)NC(=O)c1csc(-c2c(-c3ccc(F)cc3)noc2CNC(=O)Cc2ccc(C(F)(F)F)cc2)n1 [Example 754]	> 1000
O=C(O)c1csc(-c2c(-c3ccc(F)cc3)ncn2C2CCNCC2)n1 [Example 95, 2-|5-(4-Fluoro-phenyl)-3-piperidin-4-yl-3H-imidazol-4-yl|-thiazole-4-carboxylic acid]	> 1000
CCCc1ccc(C(=O)NCc2nc(-c3ccc(F)cc3)c(-c3nc(C(=O)NC(C)C)cs3)o2)cc1 [Example 176]	> 1000
COc1cc(OC)cc(C(=O)NCc2onc(-c3ccc(F)cc3)c2-c2nc(C(=O)NC(C)C)cs2)c1 [Example 702]	> 1000
Cc1ccc(O)c(C(=O)NCc2onc(-c3ccc(F)cc3)c2-c2nc(C(=O)NC(C)C)cs2)c1 [Example 620]	> 1000
COc1cccc(C(=O)NCc2nc(-c3ccc(F)cc3)c(-c3nc(C(=O)NC(C)C)cs3)o2)c1OC [Example 228]	> 1000
Cc1onc(-c2ccc(Cl)cc2)c1-c1ccn(C(=O)N(C)C(C)C)n1 [Example 13, 3-|3-(4-Chloro-phenyl)-5-methyl-isoxazol-4-yl|-pyrazole-1-carboxylic acid isopropyl-methyl-amide]	> 1000
CC(C)NC(=O)c1csc(-c2c(-c3ccc(F)cc3)noc2CNC(=O)c2ccc3c(c2)OCO3)n1 [Example 652]	> 1000
C#CCNC(=O)c1csc(-c2c(-c3ccc(F)cc3)ncn2C2CCN(C(=O)CO)CC2)n1 [Example 94, 2-{5-(4-Fluoro-phenyl)-3-|1-(2-hydroxy-acetyl)-piperidin-4-yl|-3H-imidazol-4-yl}-thiazole-4-carboxylic acid prop-2-ynylamide]	≤ 1000
CC(C)NC(=O)c1csc(-c2c(-c3ccc(F)cc3)noc2CNC(=O)c2ccccc2)n1 [Example 586]	> 1000
CC(C)NC(=O)c1csc(-c2oc(CNC(=O)c3c(F)cccc3F)nc2-c2ccc(F)cc2)n1 [Example 157]	≤ 1000
Cc1ccc(C)c(C(=O)N2CCN(Cc3nc(-c4ccc(F)cc4)c(-c4nc(C(=O)NC(C)C)cs4)o3)CC2)c1 [Example 374]	> 1000
CC(C)NC(=O)c1csc(-c2oc(CNC(=O)c3cccc(O)c3)nc2-c2ccc(F)cc2)n1 [Example 124]	≤ 1000
CC(C)NC(=O)c1csc(-c2oc(CN3CCN(C(=O)c4cnc(O)c(Cl)c4)CC3)nc2-c2ccc(F)cc2)n1 [Example 435]	≤ 1000
CC(C)NC(=O)c1csc(-c2[nH]c(N)nc2-c2ccc(F)cc2)n1 [Example 96, 2-|2-Amino-5-(4-fluoro-phenyl)-3H-imidazol-4-yl|-thiazole-4-carboxylic acid isopropylamide]	≤ 1000
CC(C)NC(=O)c1csc(-c2oc(CN3CCN(C(=O)c4ccc([N+](=O)[O-])c(O)c4)CC3)nc2-c2ccc(F)cc2)n1 [Example 469]	> 1000
CC(C)NC(=O)c1csc(-c2oc(CN3CCN(C(=O)C4CCCO4)CC3)nc2-c2ccc(F)cc2)n1 (stereo not drawn) [Example 346]	> 1000
COc1ccc(CNC(=O)c2csc(-c3sc(C)nc3-c3ccc(F)cc3)n2)cc1OC [Example 60, 4′-(4-Fluoro-phenyl)-2′-methyl-|2,5′|bithiazolyl-4-carboxylic acid 3,4-dimethoxy-benzylamide]	> 1000
CC1=NN(c2ccc(C(=O)NCc3nc(-c4ccc(F)cc4)c(-c4nc(C(=O)NC(C)C)cs4)o3)cc2)C(=O)C1 [Example 301]	≤ 1000
CC(=O)Nc1cccc(C(=O)N2CCN(Cc3nc(-c4ccc(F)cc4)c(-c4nc(C(=O)NC(C)C)cs4)o3)CC2)c1 [Example 448]	≤ 1000

Same assay, conditions: p38α kinase; Table 1 Biological Activity

Structure (SMILES)	IC50 [nM]
CCNCc1onc(-c2ccc(F)cc2)c1-c1nc(C(=O)NC(C)C)cs1 [Example 1383]	> 1000
Cc1nc(-c2ccc(F)cc2)c(-c2nc(C(=O)Nc3c(C)cccc3C(C)C)cs2)s1 [Example 1998]	> 1000
CC(C)NC(=O)c1csc(-c2c(-c3ccc(F)cc3)noc2CNC(C)Cc2ccncc2)n1 (stereo not drawn) [Example 1452]	> 1000
Cc1nc(-c2ccc(F)cc2)c(-c2nc(C(=O)NCc3ccccc3OC(F)(F)F)cs2)s1 [Example 1827]	≤ 1000
CCCN(CCC)Cc1nc(-c2ccc(F)cc2)c(-c2nc(C(=O)NC(C)C)cs2)o1 [Example 1203]	> 1000
COc1cccc(CCNCc2onc(-c3ccc(F)cc3)c2-c2nc(C(=O)NC(C)C)cs2)c1 [Example 1473]	> 1000
CC(C)NC(=O)c1csc(-c2c(-c3ccc(F)cc3)noc2CNCCCN2CCOCC2)n1 [Example 1468]	> 1000
CC(C)CC(NC(=O)OC(C)(C)C)C(=O)NCc1onc(-c2ccc(F)cc2)c1-c1nc(C(=O)NC(C)C)cs1 (stereo not drawn) [Example 804]	> 1000
CC(C)NC(=O)c1csc(-c2c(-c3ccc(F)cc3)n[nH]c2C2CCN(C(=O)C(Cl)(Cl)Cl)CC2)n1 [Example 879]	> 1000
Cc1ccccc1NCc1nc(-c2ccc(F)cc2)c(-c2nc(C(=O)NC(C)C)cs2)o1 [Example 1310]	> 1000
CC(C)NC(=O)c1csc(-c2c(-c3ccc(F)cc3)n[nH]c2C2CCN(C(=O)c3cccc(O)c3O)CC2)n1 [Example 861]	> 1000
CC(C)NC(=O)c1csc(-c2c(-c3ccc(F)cc3)n[nH]c2C2CCN(C(=O)c3cccc(Oc4ccccc4)c3)CC2)n1 [Example 1002]	> 1000
CC(C)NC(=O)c1csc(-c2oc(CNc3ccccc3)nc2-c2ccc(F)cc2)n1 [Example 1307]	> 1000
CC(C)NC(=O)c1csc(-c2c(-c3ccc(F)cc3)noc2CNCCc2ccc(F)cc2)n1 [Example 1458]	> 1000
CC(C)NC(=O)c1csc(-c2oc(CNCC3CCCCC3)nc2-c2ccc(F)cc2)n1 [Example 1090]	> 1000
O=C(O)c1csc(-c2c(-c3ccc(F)cc3)n[nH]c2C2CCNCC2)n1 [Example 2030]	> 1000
CC(C)NC(=O)c1csc(-c2c(-c3ccc(F)cc3)noc2CNCC2CC2)n1 [Example 1392]	> 1000
COC(=O)C1CCN(C(=O)c2csc(-c3sc(C)nc3-c3ccc(F)cc3)n2)CC1 [Example 1882]	> 1000
Cc1ccc(Cl)cc1N1CCN(Cc2nc(-c3ccc(F)cc3)c(-c3nc(C(=O)NC(C)C)cs3)o2)CC1 [Example 1284]	> 1000
COc1ccc(OC)c(CCNCc2nc(-c3ccc(F)cc3)c(-c3nc(C(=O)NC(C)C)cs3)o2)c1 [Example 1171]	> 1000

Structure (SMILES)	IC50 [nM]
CC(C)NC(=O)c1csc(-c2c(-c3ccc(F)cc3)noc2CN2CCN(c3ccc([N+](=O)[O-])cc3)CC2)n1 [Example 1608]	> 1000
Cc1nc(-c2ccc(F)cc2)c(-c2nc(C(=O)NC(CO)C(C)C)cs2)s1 (stereo not drawn) [Example 1738]	≤ 1000
CC(C)NC(=O)c1csc(-c2c(-c3ccc(F)cc3)noc2CNc2cc(F)cc(F)c2)n1 [Example 1653]	> 1000
CC(C)NC(=O)c1csc(-c2c(-c3ccc(F)cc3)noc2CNCCc2c[nH]c3ccccc23)n1 [Example 1485]	> 1000
CC(C)NC(=O)c1csc(-c2c(-c3ccc(F)cc3)noc2CN2CCCCC2CCO)n1 (stereo not drawn) [Example 1548]	> 1000
CC(C)NC(=O)c1csc(-c2c(-c3ccc(F)cc3)n[nH]c2C2CCN(C(=O)/C=C/c3ccccc3C(F)(F)F)CC2)n1 [Example 1010]	> 1000
CC(C)NC(=O)c1csc(-c2c(-c3ccc(F)cc3)noc2CN(CCC#N)Cc2cccnc2)n1 [Example 1566]	> 1000
Cc1nc(-c2ccc(F)cc2)c(-c2nc(C(=O)N3CCCC4CCCCC43)cs2)s1 (stereo not drawn) [Example 1880]	≤ 1000
Cc1nc(-c2ccc(F)cc2)c(-c2nc(C(=O)NC(C)CCc3ccccc3)cs2)s1 (stereo not drawn) [Example 1794]	> 1000
Cc1nc(-c2ccc(F)cc2)c(-c2nc(C(=O)Nc3ccc(C)c(F)c3)cs2)s1 [Example 1976]	> 1000
O=C(NCCc1cccc(Cl)c1)c1csc(-c2c(-c3ccc(F)cc3)n[nH]c2C2CCNCC2)n1 [Example 2128]	> 1000
COc1ccccc1N1CCN(Cc2nc(-c3ccc(F)cc3)c(-c3nc(C(=O)NC(C)C)cs3)o2)CC1 [Example 1270]	> 1000
CC(C)NC(=O)c1csc(-c2c(-c3ccc(F)cc3)noc2CNC(=O)C(Cc2ccccc2)NC(=O)OC(C)(C)C)n1 (stereo not drawn) [Example 806]	> 1000
CC(C)NC(=O)c1csc(-c2c(-c3ccc(F)cc3)n[nH]c2C2CCN(C(=O)c3cccc([N+](=O)[O-])c3)CC2)n1 [Example 899]	> 1000
CCCNCc1onc(-c2ccc(F)cc2)c1-c1nc(C(=O)NC(C)C)cs1 [Example 1388]	> 1000
CCN(CCCCO)Cc1nc(-c2ccc(F)cc2)c(-c2nc(C(=O)NC(C)C)cs2)o1 [Example 1215]	> 1000
CC(C)NC(=O)c1csc(-c2c(-c3ccc(F)cc3)n[nH]c2C2CCN(C(=O)Cc3ccc(O)c(Cl)c3)CC2)n1 [Example 954]	> 1000
Cc1nc(-c2ccc(F)cc2)c(-c2nc(C(=O)N3CCC(C(N)=O)CC3)cs2)s1 [Example 1869]	> 1000
C#CCN(Cc1nc(-c2ccc(F)cc2)c(-c2nc(C(=O)NC(C)C)cs2)o1)Cc1ccc(Cl)cc1Cl [Example 1290]	> 1000
CC(C)NC(=O)c1csc(-c2c(-c3ccc(F)cc3)n[nH]c2C2CCN(C(=O)c3ccccc3Oc3ccccc3)CC2)n1 [Example 1003]	> 1000
